Source: the supplement of paper PMC10307832

Columns and labels:
Assay in all cases: relative viability (nuclei count vs DMSO), 5 days (fraction); higher = more cells survive
ChaGo-K-1 = system: ChaGo-K-1
Summary of the method: (§1)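 Lung cancer cell lines were pin-tool dosed in 1536-well plates on the day after seeding, with either a lone drug or a fixed anchor-drug dose plus five library-drug doses (not always all listed) in √10 steps. Nuclei were counted on 4× images after 5 days. Relative viability is the ratio of treated-well to vehicle-well nuclei counts, with each value a median of duplicate plates.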

EKVX = system: EKVX
Summary of the method: as §1

EMC-BAC-2 = system: EMC-BAC-2
Summary of the method: as §1

H3255 = system: H3255
Summary of the method: as §1

HARA = system: HARA
Summary of the method: as §1

HCC-15 = system: HCC-15
Summary of the method: as §1

HCC-827 = system: HCC-827
Summary of the method: as §1

LC-2-ad = system: LC-2-ad
Summary of the method: as §1

LCLC-97TM1 = system: LCLC-97TM1
Summary of the method: as §1

LU99A = system: LU99A
Summary of the method: as §1

NCI-H1437 = system: NCI-H1437
Summary of the method: as §1

NCI-H1792 = system: NCI-H1792
Summary of the method: as §1

O=C(O)CCCCC(CCSCc1ccccc1)SCc1ccccc1 (stereo unspecified) [CPI-613] + CC(=O)c1c(C)c2cnc(Nc3ccc(N4CCNCC4)cn3)nc2n(C2CCCC2)c1=O [Palbociclib] (partner 0.5 µM)
relative viability (ChaGo-K-1; first compound 5 µM): 0.868
relative viability (ChaGo-K-1; first compound 15.81 µM): 0.902
relative viability (ChaGo-K-1; first compound 50 µM): 0.842
relative viability (ChaGo-K-1; first compound 158.11 µM): 0.339
relative viability (ChaGo-K-1; first compound 500 µM): 0.419
relative viability (EKVX; first compound 5 µM): 0.372
relative viability (EKVX; first compound 15.81 µM): 0.449
relative viability (EKVX; first compound 50 µM): 0.404
relative viability (EKVX; first compound 500 µM): 0.378
relative viability (EMC-BAC-2; first compound 5 µM): 0.524
relative viability (EMC-BAC-2; first compound 15.81 µM): 0.506
relative viability (EMC-BAC-2; first compound 50 µM): 0.514
relative viability (EMC-BAC-2; first compound 158.11 µM): 0.267
relative viability (EMC-BAC-2; first compound 500 µM): 0.265
relative viability (H3255; first compound 5 µM): 0.296
relative viability (H3255; first compound 15.81 µM): 0.302
relative viability (H3255; first compound 50 µM): 0.339
relative viability (H3255; first compound 158.11 µM): 0.328
relative viability (H3255; first compound 500 µM): 0.302
relative viability (HARA; first compound 5 µM): 0.214
relative viability (HARA; first compound 15.81 µM): 0.26
relative viability (HARA; first compound 50 µM): 0.309
relative viability (HARA; first compound 158.11 µM): 0.198
relative viability (HARA; first compound 500 µM): 0.105
relative viability (HCC-15; first compound 5 µM): 0.649
relative viability (HCC-15; first compound 15.81 µM): 0.694
relative viability (HCC-15; first compound 50 µM): 0.681
relative viability (HCC-15; first compound 158.11 µM): 0.332
relative viability (HCC-15; first compound 500 µM): 0.126
relative viability (HCC-827; first compound 5 µM): 0.465
relative viability (HCC-827; first compound 15.81 µM): 0.491
relative viability (HCC-827; first compound 50 µM): 0.464
relative viability (HCC-827; first compound 158.11 µM): 0.496
relative viability (HCC-827; first compound 500 µM): 0.417
relative viability (LC-2-ad; first compound 5 µM): 0.446
relative viability (LC-2-ad; first compound 15.81 µM): 0.472
relative viability (LC-2-ad; first compound 50 µM): 0.489
relative viability (LC-2-ad; first compound 158.11 µM): 0.24
relative viability (LC-2-ad; first compound 500 µM): 0.168
relative viability (LCLC-97TM1; first compound 5 µM): 0.232
relative viability (LCLC-97TM1; first compound 15.81 µM): 0.207
relative viability (LCLC-97TM1; first compound 50 µM): 0.177
relative viability (LCLC-97TM1; first compound 158.11 µM): 0.124
relative viability (LCLC-97TM1; first compound 500 µM): 0.0897
relative viability (LU99A; first compound 5 µM): 0.383
relative viability (LU99A; first compound 15.81 µM): 0.411
relative viability (LU99A; first compound 50 µM): 0.372
relative viability (LU99A; first compound 158.11 µM): 0.193
relative viability (LU99A; first compound 500 µM): 0.264
relative viability (NCI-H1437; first compound 5 µM): 0.284
relative viability (NCI-H1437; first compound 15.81 µM): 0.281
relative viability (NCI-H1437; first compound 50 µM): 0.292
relative viability (NCI-H1437; first compound 158.11 µM): 0.0875
relative viability (NCI-H1437; first compound 500 µM): 0.026
relative viability (NCI-H1792; first compound 5 µM): 0.627
relative viability (NCI-H1792; first compound 15.81 µM): 0.607
